Our source for the IC95 values is ChEMBL document CHEMBL1126659, “5-chloro-3-(phenylsulfonyl)indole-2-carboxamide: a novel, non-nucleoside inhibitor of HIV-1 reverse transcriptase” (J Med Chem, 1993).

Counter-ions that a name gives are not always drawn.

The subject of this test is MT4. Description: Inhibition of cell culture in MT-4 cells. Format: functional. Conditions: Homo sapiens, read-out: CIC95.
Consider `[O-][S+](Cc1[nH]c2ccc(Cl)cc2c1Sc1ccccc1)c1ccccc1` (stereo not given), for which the IC95 was 0.8 µM.

For `NC(=O)c1[nH]c2ccc(Cl)cc2c1S(=O)(=O)c1ccccc1` [L-737126], the IC95 amounted to 0.003 µM.

`CCc1cc(NCc2nc3c(Cl)ccc(Cl)c3o2)c(O)nc1C` [L-697661]: the IC95 came to 0.05 µM.

On to `[O-][S+](Cc1[nH]c2ccccc2c1[S+]([O-])c1ccccc1)c1ccccc1` (stereo not given), for which the IC95 was more than 3 µM.

`CN(C)C(=O)c1[nH]c2ccccc2c1Sc1ccccc1`: the IC95 is more than 3 µM.

In the case of `NC(=O)c1[nH]c2ccc(Cl)cc2c1Sc1ccccc1`, the IC95 came to 0.2 µM.

For `CNC(=O)c1[nH]c2ccc(Cl)cc2c1Sc1ccccc1`, the IC95 stood at 0.2 µM.

As to `CCNc1cccnc1N1CCN(C(=O)c2cc3cc(OC)ccc3[nH]2)CC1` [ATEVIRDINE MESYLATE], the IC95 was 3 µM.

Turning to `CC(C)=CCN1Cc2cc(Cl)cc3[nH]c(=S)n(c23)C[C@@H]1C`, the IC95 was determined as 0.4 µM.

Turning to `COC(=O)c1[nH]c2ccccc2c1Sc1ccccc1`, the IC95 is more than 3 µM.

In the case of `[O-][S+](Cc1[nH]c2ccccc2c1Sc1ccccc1)c1ccccc1` (stereo not given), the IC95 was 0.4 µM.

On to `Cc1ccnc2c1NC(=O)c1cccnc1N2C1CC1` [NEVIRAPINE], for which the IC95 was found to be 0.4 µM.

In the case of `CNC(=O)c1[nH]c2ccccc2c1Sc1ccccc1`, the IC95 worked out at 0.8 µM.

For `NC(=O)c1[nH]c2ccc(Cl)cc2c1[S+]([O-])c1ccccc1` (stereo not given), the IC95 is 0.2 µM.

`COC(=O)c1[nH]c2ccc(Cl)cc2c1Sc1ccccc1`: the IC95 was found to be 1.5 µM.
